Measurements published in patent US11464770B2, “Anticancer pharmaceutical composition” (NATIONAL CANCER CENTER, priority 2016, dated 2022).
Read-outs that look alike come from different tables or passages of the source.

Columns and labels:
melanoma cell lines = test: Cell based assay, cell viability (CellTiter-Glo), melanoma cell lines; settings: Homo sapiens; LOX-IMVI cell line
Experimental: (§1) Commercially available bladder cancer, prostate cancer, lung cancer, breast cancer, blood cancer, pancreatic cancer, colorectal cancer, brain cancer, neuroblastoma, melanoma, liver cancer, cervical carcinoma, ovarian cancer, renal cancer, and papilloma cell lines were each treated with trypsin-EDTA and cultured, followed by being seeded in each well of a 96 well plate. After 24 hours of treatment at constant temperature, the respective cells were treated with the candidate compound so that a final concentration became 0 to 2 μM. The treated cells were additionally cultured for 72 hours, and cell viability was measured by using an ATP detection method (CellTiter-Glo® Luminescent Cell Viability Assay, Promega).

[1] = tested on: colorectal cancer cell lines (e.g. DLD-1, HCT 116, SW620, HCT-15, HCT-8, RKO); test: Cell based assay, cell viability (CellTiter-Glo), colorectal cancer cell lines
Experimental: as §1

[2] = tested on: ovarian cancer cell lines; test: Cell based assay, cell viability (CellTiter-Glo), ovarian cancer cell lines; settings: Homo sapiens; OVCAR-3 cells
Experimental: as §1

[3] = Homo sapiens, DLD-1, 72 hours treatment, read-out: IC50, colorectal cancer cell line DLD-1
[4] = Homo sapiens, HCT 116, 72 hours treatment, read-out: IC50, colorectal cancer cell line HCT 116
[5] = Homo sapiens, HCT-8, 72 hours treatment, read-out: IC50, colorectal cancer cell line HCT-8
[6] = Homo sapiens, HCT-15, 72 hours treatment, read-out: IC50, colorectal cancer cell line HCT-15
[7] = Homo sapiens, HT-29, 72 hours treatment, read-out: IC50, colorectal cancer cell line HT-29
[8] = Homo sapiens, LoVo, 72 hours treatment, read-out: IC50, colorectal cancer cell line LoVo
[9] = Homo sapiens, SW480, 72 hours treatment, read-out: IC50, colorectal cancer cell line SW480
[10] = Homo sapiens, SW-620, SW620, 72 hours treatment, read-out: IC50, colorectal cancer cell line SW620
[11] = RKO, 72 hours treatment, read-out: IC50, colorectal cancer cell line RKO

| IC50 (melanoma cell lines) [nM] | IC50 [1, 3] [nM] | IC50 [1, 4] [nM] | IC50 [1, 5] [nM] | IC50 [1, 6] [nM] | IC50 [1, 7] [nM] | IC50 [1, 8] [nM] | IC50 [1, 9] [nM] | IC50 [1, 10] [nM] | IC50 [1, 11] [nM] | IC50 [2] [nM] | Compound |
| --- | --- | --- | --- | --- | --- | --- | --- | --- | --- | --- | --- |
| 1500 | 810 | 1670 | > 2000 | > 2000 | > 10000 | > 2000 | > 2000 | > 2000 | > 2000 | 700 | CC(=O)c1c([S+](C)[O-])[nH]c2c(Br)ccc(Cl)c2c1=O (centres unmarked) [Compound 1, 3-acetyl-8-bromo-5-chloro-2-(methylsulfinyl)quinolin-4(1H)-one] |
| > 2000 | > 2000 | > 2000 | > 2000 | > 2000 | > 10000 | > 2000 | > 2000 | > 2000 | > 2000 | > 2000 | CSc1[nH]c2c(Br)ccc(Cl)c2c(=O)c1C(C)=O [Compound 2, 3-acetyl-8-bromo-5-chloro-2-(methylthio)quinolin-4(1H)-one] |
| > 2000 | > 2000 | > 2000 | > 2000 | > 2000 | > 10000 | > 2000 | > 2000 | > 2000 | > 2000 | > 2000 | CC(=O)c1c(SCc2ccccc2)[nH]c2c(Br)ccc(Cl)c2c1=O [Compound 3, 3-acetyl-2-(benzylthio)-8-bromo-5-chloroquinolin-4(1H)-one] |
| > 2000 | > 2000 | > 2000 | > 2000 | > 2000 | > 10000 | > 2000 | > 2000 | > 2000 | > 2000 | > 2000 | CSc1c(C(C)=O)c(=O)c2c(Cl)ccc(Br)c2n1C [Compound 5, 3-acetyl-8-bromo-5-chloro-1-methyl-2-(methylthio)quinolin-4(1H)-one] |
| 1350 | 700 | 1480 | > 2000 | 1700 | > 10000 | > 2000 | > 2000 | 1550 | 1840 | 730 | CC(=O)c1c([S+](C)[O-])[nH]c2c(Cl)ccc(Cl)c2c1=O (centres unmarked) [Compound 6, 3-acetyl-5,8-dichloro-2-(methylsulfinyl)quinolin-4(1H)-one] |
| > 2000 | > 2000 | > 2000 | > 2000 | > 2000 | > 10000 | > 2000 | > 2000 | > 2000 | > 2000 | > 2000 | CSc1c(C(C)=O)c(=O)c2cc(F)ccc2n1C [Compound 7, 3-acetyl-6-fluoro-1-methyl-2-(methylthio)quinolin-4(1H)-one] |
| > 2000 | > 2000 | > 2000 | > 2000 | > 2000 | > 10000 | > 2000 | > 2000 | > 2000 | > 2000 | > 2000 | CSc1[nH]c2ccc(F)cc2c(=O)c1C(C)=O [Compound 8, 1-(6-fluoro-4-hydroxy-2-(methylthio)quinolin-3-yl)ethan-1-one] |
| 1050 | 870 | 1050 | 1750 | 1240 | > 10000 | > 2000 | 1280 | 1360 | 1930 | 580 | CC(=O)c1c([S+](C)[O-])n(C(=O)c2ccc(Br)cc2)c2c(Br)ccc(Cl)c2c1=O (centres unmarked) [Compound 9, 3-acetyl-8-bromo-1-(4-bromobenzoyl)-5-chloro-2-(methylsulfinyl)quinolin-4(1H)-one] |
| > 2000 | > 2000 | > 2000 | > 2000 | > 2000 | > 10000 | > 2000 | > 2000 | > 2000 | > 2000 | > 2000 | CC(=O)c1c(SCc2ccc(Cl)cc2)[nH]c2c(Br)ccc(Cl)c2c1=O [Compound 10, 3-acetyl-8-bromo-5-chloro-2-((4-chlorobenzyl)thio)quinolin-4(1H)-one] |
| > 2000 | 820 | > 2000 | > 2000 | > 2000 | > 10000 | > 2000 | > 2000 | > 2000 | > 2000 | > 2000 | CC(=O)c1c([S+]([O-])Cc2ccc(Cl)cc2)[nH]c2c(Br)ccc(Cl)c2c1=O (centres unmarked) [Compound 11, 3-acetyl-8-bromo-5-chloro-2-((4-chlorobenzyl)sulfinyl)quinolin-4(1H)-one] |
| > 2000 | > 2000 | > 2000 | > 2000 | > 2000 | > 10000 | > 2000 | > 2000 | > 2000 | > 2000 | > 2000 | CC(=O)c1c(Sc2ccccc2)[nH]c2c(Br)ccc(Cl)c2c1=O [Compound 12, 3-acetyl-8-bromo-5-chloro-2-(phenylthio)quinolin-4(1H)-one] |
| > 2000 | > 2000 | > 2000 | > 2000 | > 2000 | > 10000 | > 2000 | > 2000 | > 2000 | > 2000 | > 2000 | CC(=O)c1c([S+]([O-])c2ccccc2)[nH]c2c(Br)ccc(Cl)c2c1=O (centres unmarked) [Compound 13, 3-acetyl-8-bromo-5-chloro-2-(phenylsulfinyl)quinolin-4(1H)-one] |
| > 2000 | > 2000 | > 2000 | > 2000 | > 2000 | > 10000 | > 2000 | > 2000 | > 2000 | > 2000 | > 2000 | COc1ccccc1Sc1[nH]c2c(Br)ccc(Cl)c2c(=O)c1C(C)=O [Compound 14, 3-acetyl-8-bromo-5-chloro-2-((2-methoxyphenyl)thio)quinolin-4(1H)-one] |
| > 2000 | > 2000 | > 2000 | > 2000 | > 2000 | > 10000 | > 2000 | > 2000 | > 2000 | > 2000 | > 2000 | COc1ccccc1[S+]([O-])c1[nH]c2c(Br)ccc(Cl)c2c(=O)c1C(C)=O (centres unmarked) [Compound 15, 3-acetyl-8-bromo-5-chloro-2-((2-methoxyphenyl)sulfinyl)quinolin-4(1H)-one] |
| > 2000 | > 2000 | > 2000 | > 2000 | > 2000 | > 10000 | > 2000 | > 2000 | > 2000 | > 2000 | > 2000 | CC(=O)c1c(Sc2ccc(Br)cc2)[nH]c2c(Br)ccc(Cl)c2c1=O [Compound 16, 3-acetyl-8-bromo-2-((4-bromophenyl)thio)-5-chloroquinolin-4(1H)-one] |
| > 2000 | > 2000 | > 2000 | > 2000 | > 2000 | > 10000 | > 2000 | > 2000 | > 2000 | > 2000 | > 2000 | CC(=O)c1c([S+]([O-])c2ccc(Br)cc2)[nH]c2c(Br)ccc(Cl)c2c1=O (centres unmarked) [Compound 17, 3-acetyl-8-bromo-2-((4-bromophenyl)sulfinyl)-5-chloroquinolin-4(1H)-one] |
| > 2000 | > 2000 | > 2000 | > 2000 | > 2000 | > 10000 | > 2000 | > 2000 | > 2000 | > 2000 | > 2000 | CSc1c(C(C)=O)c(=O)c2c(Cl)ccc(Br)c2n1C(C)=O [Compound 18, 1,1′-(8-bromo-5-chloro-2-(methylthio)-4-oxoquinoline-1,3(4H)-diyl)bis(ethan-1-one)] |
| > 2000 | > 2000 | > 2000 | > 2000 | > 2000 | > 10000 | > 2000 | > 2000 | > 2000 | > 2000 | > 2000 | CC(=O)c1c([S+](C)[O-])n(C(C)=O)c2c(Br)ccc(Cl)c2c1=O (centres unmarked) [Compound 19, 1,1′-(8-bromo-5-chloro-2-(methylsulfinyl)-4-oxoquinoline-1,3(4H)-diyl)bis(ethan-1-one)] |
| > 2000 | > 2000 | > 2000 | > 2000 | > 2000 | > 10000 | > 2000 | > 2000 | > 2000 | > 2000 | > 2000 | CC(=O)c1c([S+]([O-])Cc2ccccc2)n(C(=O)c2ccc(Br)cc2)c2c(Br)ccc(Cl)c2c1=O (centres unmarked) [Compound 20, 3-acetyl-2-(benzylsulfinyl)-8-bromo-1-(4-bromobenzoyl)-5-chloroquinolin-4(1H)-one] |
| > 2000 | > 2000 | > 2000 | > 2000 | > 2000 | > 10000 | > 2000 | > 2000 | > 2000 | > 2000 | > 2000 | CC(=O)c1c(S(C)(=O)=O)n(C(=O)c2ccc(Br)cc2)c2c(Br)ccc(Cl)c2c1=O [Compound 21, 3-acetyl-8-bromo-1-(4-bromobenzoyl)-5-chloro-2-(methylsulfonyl)quinolin-4(1H)-one] |
| > 2000 | > 2000 | > 2000 | > 2000 | > 2000 | > 10000 | > 2000 | > 2000 | > 2000 | > 2000 | > 2000 | CC(=O)c1c([S+](C)[O-])n(Cc2ccc(F)c(Cl)c2)c2c(Br)ccc(Cl)c2c1=O (centres unmarked) [Compound 22, 3-acetyl-8-bromo-5-chloro-1-(3-chloro-4-fluorobenzyl)-2-(methylsulfinyl)quinolin-4(1H)-one] |
| > 2000 | > 2000 | > 2000 | > 2000 | > 2000 | > 10000 | > 2000 | > 2000 | > 2000 | > 2000 | > 2000 | CC(=O)c1c(SCc2ccccc2)n(C(=O)c2ccc(Br)cc2)c2c(Br)ccc(Cl)c2c1=O [Compound 23, 3-acetyl-2-(benzylthio)-8-bromo-1-(4-bromobenzoyl)-5-chloroquinolin-4(1H)-one] |
| – | > 2000 | > 2000 | > 2000 | > 2000 | > 10000 | > 2000 | > 2000 | > 2000 | > 2000 | > 2000 | CC(=O)c1c(SCc2cccc(F)c2)[nH]c2c(Br)ccc(Cl)c2c1=O [Compound 49, 3-acetyl-8-bromo-5-chloro-2-((3-fluorobenzyl)thio)quinolin-4(1H)-one] |

| Compound | IC50 (melanoma cell lines) [nM] | IC50 [1, 3] [nM] | IC50 [1, 4] [nM] | IC50 [1, 5] [nM] | IC50 [1, 6] [nM] | IC50 [1, 7] [nM] | IC50 [1, 8] [nM] | IC50 [1, 9] [nM] | IC50 [1, 10] [nM] | IC50 [1, 11] [nM] | IC50 [2] [nM] |
| --- | --- | --- | --- | --- | --- | --- | --- | --- | --- | --- | --- |
| CC(=O)c1c([S+]([O-])Cc2ccccc2)nc2c(Br)ccc(Cl)c2c1O (centres unmarked) [Compound 4] | 1090 | 1840 | 1150 | 1580 | 1330 | > 10000 | 1800 | > 2000 | 1330 | 1550 | 810 |
